Experimental data as given in US10829520B2, “Beta-hairpin peptidomimetics” (POLYPHOR AG, priority 2015, dated 2020).
*1 amine or outer side, *2 acyl side, *3 side chain or, on linkers, in order; H or OH if unused. Where a SMILES comes first, the peptide text is derived from it. Bridges are numbered along the chain shown (N, C = ends). Roman numbers before positions name the chains, in order. [ ]: non-standard residue; d: D form. X3 = CNCC[C@H](N[*:1])C(=O)[*:2]; Tle = CC(C)(C)[C@H](N)C(=O)O; dDab = NCC[C@@H](N)C(=O)O; Nle = CCCC[C@H](N)C(=O)O; Orn = NCCC[C@H](N)C(=O)O; Dab = NCC[C@H](N)C(=O)O; Dap = NC[C@H](N)C(=O)O

Assays:
Assay type in all cases: cell-based
[1] = test system: Klebsiella pneumoniae SSI #3010; details: SSI #3010
Method: (§1) Lyophilized peptides were weighed on a Microbalance (Mettler MT5) and dissolved in sterile water to a final concentration of 1 mg/mL. Stock solutions were kept at +4° C., light protected.
(§2) The in vitro antimicrobial activities of the peptides were determined in 96-well plates (Greiner, polystyrene) by the standard CLSI broth microdilution method (Clinical and Laboratory Standards Institute 2014. Performance standards for antimicrobial susceptibility testing, 24th informational supplement. Approved standard CLSI M100-S24; Clinical and Laboratory Standards Institute, Wayne, Pa.). Inocula of the microorganisms were diluted into Mueller-Hinton II (MH-cation adjusted) broth and compared with a 0.5 McFarland standard to give appr. 10^6 colony forming units (CFU)/mL. Aliquots (90 μL) of inoculate were added to 10 μL of MH-II broth+P-80 (Polysorbate 80, 0.002% final concentration, v/v) containing the peptide in serial two-fold dilutions. The following microorganisms were used to determine antibiotic activity of the peptides: Escherichia coli ATCC 25922, Klebsiella pneumoniae SSI #3010^a), Acinetobacter baumannii DSM 30008, Pseudomonas aeruginosa ATCC 27853 and the clinical isolates Escherichia coli 926415^b), Klebsiella pneumoniae 968733^b) and Acinetobacter baumannii 872842^b). Antimicrobial activities of the peptides were expressed as the minimal inhibitory concentration (MIC) in μg/mL at which no visible growth was observed after 18-20 hours of incubation at 35° C. ^a) Obtained from Statens Serum Institut (SSI), Copenhagen, Denmark^b) Obtained from International Health Management Associates, Inc. (IHMA Europe Sàrl), Epalinges, Switzerland

[2] = test system: Pseudomonas aeruginosa ATCC 27853; details: ATCC 27853
Method: as §1, §2

[3] = test system: Acinetobacter baumannii DSM 30008; details: DSM 30008
Method: as §1, §2

[4] = test system: Escherichia coli ATCC 25922; details: ATCC 25922
Method: as §1, §2

[5] = test system: human red blood cells (hRBC); experiment: Hemolysis of human red blood cells; details: red cells of human, 1 h
Method: as §1
The peptides were tested for their hemolytic activity against human red blood cells (hRBC). Fresh hRBC were washed three times with phosphate buffered saline (PBS) and centrifuged for 10 min at 2000×g. Compounds (100 μg/mL) were incubated with 20% hRBC (v/v) for 1 h at 37° C. and shaking at 300 rpm. The final erythrocyte concentration was approximately 0.9×10^9 cells/mL. A value of 0% and 100% cell lyses, respectively, was determined by incubation of hRBC in the presence of PBS containing 0.001% acetic acid and 2.5% Triton X-100 in H2O, respectively. The samples were centrifuged, the supernatants were 8-fold diluted in PBS buffer and the optical densities (OD) were measured at 540 nm. The 100% lyses value (OD540H2O) gave an OD540 of approximately 0.5-1.0.
Percent hemolysis was calculated as follows: (OD540peptide/OD540H2O)×100%.

Klebsiella pneumoniae SSI #3010 MIC [1]	Pseudomonas aeruginosa ATCC 27853 MIC [2]	Acinetobacter baumannii DSM 30008 MIC [3]	Escherichia coli ATCC 25922 MIC [4]	Compound	Hemolysis at 100 μg/mL [5]; 100	Hemolysis at 100 μg/mL ([5]; 100 μg/mL)
1 µg/mL	0.5 µg/mL	1 µg/mL	2 µg/mL	CCCC[C@@H]1NC(=O)[C@@H]2CCCN2C(=O)[C@H]2CCCN2C(=O)[C@H](CO)NC(=O)[C@H](C)NC(=O)[C@H](C(C)(C)C)NC(=O)[C@H](CCC(=O)N[C@@H](CCN)C(=O)N[C@H](C(=O)N[C@@H](CCN)C(=O)N[C@H]2CCNC(=O)[C@H]([C@@H](C)O)NC(=O)[C@H](CCN)NC(=O)[C@H](CCN)NC(=O)[C@H](CC(C)C)NC(=O)[C@@H](Cc3ccccc3)NC(=O)[C@H](CCN)NC2=O)[C@@H](C)O)NC(=O)[C@H](Cc2c[nH]c3ccccc23)NC(=O)[C@H](CCN)NC(=O)[C@@H](CCN)NC(=O)[C@H](CCCN)NC(=O)[C@H](CCN)NC(=O)[C@H](Cc2ccc(O)cc2)NC(=O)[C@H](CO)NC1=O [Ex. 11] (I: cyclo(WE[Tle]AS[dP]P[Nle]SY[Dab][Orn][dDab][Dab]) / II: [Dab]T[Dab][Dab][Dab][dF]L[Dab][Dab]T; amide I:2-II:N; lactam II:4-II:C)	1%	–
4 µg/mL	4 µg/mL	2 µg/mL	0.5 µg/mL	CCCC[C@@H]1NC(=O)[C@@H]2CCCN2C(=O)[C@H]2CCCN2C(=O)[C@H](CO)NC(=O)[C@H](C)NC(=O)[C@H](C(C)(C)C)NC(=O)[C@@H](NC(=O)[C@H](Cc2c[nH]c3ccccc23)NC(C)=O)CC(=O)NCC[C@@H](C(=O)N[C@@H](CCCN)C(=O)N[C@@H](CCN)C(=O)N[C@H]2CCNC(=O)[C@H]([C@@H](C)O)NC(=O)[C@H](CCN)NC(=O)[C@H](CCN)NC(=O)[C@H](CC(C)C)NC(=O)[C@@H](Cc3ccccc3)NC(=O)[C@H](CCN)NC2=O)NC(=O)[C@H](Cc2ccc(O)cc2)NC(=O)[C@H](CO)NC1=O [Ex. 56] (Ac-WD[Tle]AS[dP]P[Nle]SY[Dab][Orn][Dab][Dab][Dab][dF]L[Dab][Dab]T; lactam 2-11, 14-C)	<1%	–

More lines, now with the values behind:

Compound	Klebsiella pneumoniae SSI #3010 MIC [1]	Pseudomonas aeruginosa ATCC 27853 MIC [2]	Acinetobacter baumannii DSM 30008 MIC [3]	Escherichia coli ATCC 25922 MIC [4]	Hemolysis at 100 μg/mL [5]; 100	Hemolysis at 100 μg/mL ([5]; 100 μg/mL)
CCCC[C@@H]1NC(=O)[C@@H]2CCCN2C(=O)[C@H]2CCCN2C(=O)[C@H](CO)NC(=O)[C@H](C)NC(=O)[C@H](C(C)(C)C)NC(=O)[C@@H](NC(=O)[C@H](Cc2c[nH]c3ccccc23)NC(C)=O)CSSC[C@@H](C(=O)N[C@@H](CNC(=O)[C@@H](N)CCC(=O)O)C(=O)N[C@H](C(=O)N[C@@H](CCN)C(=O)N[C@H]2CCNC(=O)[C@H]([C@@H](C)O)NC(=O)[C@H](CCN)NC(=O)[C@H](CCN)NC(=O)[C@H](CC(C)C)NC(=O)[C@@H](Cc3ccccc3)NC(=O)[C@H](CCN)NC2=O)[C@@H](C)O)NC(=O)[C@H](Cc2ccc(O)cc2)NC(=O)[C@H](CO)NC1=O [Ex. 24] (Ac-WC[Tle]AS[dP]P[Nle]SYC[Dap](Glu)T[Dab][Dab][Dab][dF]L[Dab][Dab]T; disulfide 2-11; lactam 15-C)	4 µg/mL	4 µg/mL	2 µg/mL	2 µg/mL	–	1%
CCCC[C@@H]1NC(=O)[C@@H]2CCCN2C(=O)[C@H]2CCCN2C(=O)[C@H](CO)NC(=O)[C@H](C)NC(=O)[C@H](C(C)C)NC(=O)[C@@H](NC(=O)[C@H](Cc2c[nH]c3ccccc23)NC(C)=O)CSSC[C@@H](C(=O)N[C@@H](CCCN)C(=O)N[C@@H](CCN)C(=O)N[C@H]2CCNC(=O)[C@H]([C@@H](C)O)NC(=O)[C@H](CCN)NC(=O)[C@H](CCN)NC(=O)[C@H](CC(C)C)NC(=O)[C@@H](Cc3ccccc3)NC(=O)[C@H](CCN)NC2=O)NC(=O)[C@H](Cc2ccc(O)cc2)NC(=O)[C@H](CO)NC1=O [Ex. 55] (Ac-WCVAS[dP]P[Nle]SYC[Orn][Dab][Dab][Dab][dF]L[Dab][Dab]T; disulfide 2-11; lactam 14-C)	1 µg/mL	2 µg/mL	1 µg/mL	0.5 µg/mL	–	1%
CCCC[C@@H]1NC(=O)[C@@H]2CCCN2C(=O)[C@H]2CCCN2C(=O)[C@H](CO)NC(=O)[C@H](C)NC(=O)[C@H](C(C)(C)C)NC(=O)[C@H](CCN)NC(=O)[C@H](Cc2c[nH]c3ccccc23)NC(=O)[C@H](CCN)NC(=O)[C@@H](CCN)NC(=O)[C@H](CC(=O)N[C@H]2CCNC(=O)[C@H]([C@@H](C)O)NC(=O)[C@H](CCN)NC(=O)[C@H](CCN)NC(=O)[C@H](CC(C)C)NC(=O)[C@@H](Cc3ccccc3)NC(=O)[C@H](CCN)NC2=O)NC(=O)[C@H](CCN)NC(=O)[C@H](Cc2ccc(O)cc2)NC(=O)[C@H](CO)NC1=O [Ex. 64] (I: cyclo([Nle]SY[Dab]D[dDab][Dab]W[Dab][Tle]AS[dP]P) / II: [Dab][Dab][dF]L[Dab][Dab]T; amide I:5-II:N; lactam II:1-II:C)	2 µg/mL	4 µg/mL	1 µg/mL	2 µg/mL	<1%	–
CCCC[C@@H]1NC(=O)[C@@H]2CCCN2C(=O)[C@H]2CCCN2C(=O)[C@H](CO)NC(=O)[C@H](C)NC(=O)[C@H](C(C)(C)C)NC(=O)[C@H](CCN)NC(=O)[C@H](Cc2c[nH]c3ccccc23)NC(=O)[C@H](CCN)NC(=O)[C@@H](CCN)NC(=O)[C@H](CCC(=O)N[C@@H](CCNC)C(=O)N[C@H]2CCNC(=O)[C@H]([C@@H](C)O)NC(=O)[C@H](CCN)NC(=O)[C@H](CCN)NC(=O)[C@H](CC(C)C)NC(=O)[C@@H](Cc3ccccc3)NC(=O)[C@H](CCN)NC2=O)NC(=O)[C@H](CCN)NC(=O)[C@H](Cc2ccc(O)cc2)NC(=O)[C@H](CO)NC1=O [Ex. 68] (I: cyclo(W[Dab][Tle]AS[dP]P[Nle]SY[Dab]E[dDab][Dab]) / II: [X3][Dab][Dab][dF]L[Dab][Dab]T; amide I:12-II:N; lactam II:2-II:C)	2 µg/mL	0.5 µg/mL	2 µg/mL	2 µg/mL	<1%	–
CC(C)C[C@@H]1NC(=O)[C@H](CCCNC(=N)N)NC(=O)[C@@H](CCN)NC(=O)[C@H](C(C)C)NC(=O)[C@H](C)NC(=O)[C@H](Cc2ccc(O)cc2)NC(=O)[C@H](CCN)NC(=O)[C@H](Cc2c[nH]c3ccccc23)NC(=O)[C@H](CCN)NC(=O)[C@@H](CCN)NC(=O)[C@H](CCC(=O)N[C@@H](CCN)C(=O)N[C@H](C(=O)N[C@@H](CCN)C(=O)N[C@H]2CCNC(=O)[C@H]([C@@H](C)O)NC(=O)[C@H](CCN)NC(=O)[C@H](CCN)NC(=O)[C@H](CC(C)C)NC(=O)[C@@H](CC(C)C)NC(=O)[C@H](CCN)NC2=O)[C@@H](C)O)NC(=O)[C@H](CCN)NC(=O)[C@H](Cc2ccc(O)cc2)NC(=O)[C@H](CO)NC1=O [Ex. 97] (I: cyclo(AV[dDab]RLSY[Dab]E[dDab][Dab]W[Dab]Y) / II: [Dab]T[Dab][Dab][Dab][dL]L[Dab][Dab]T; amide I:9-II:N; lactam II:4-II:C)	0.5 µg/mL	0.5 µg/mL	2 µg/mL	0.5 µg/mL	1%	–
